Assay results: US12539279B2, “Supramolecular ionizable lipid molecules with heteroatomic tuning for nucleic acid delivery” (priority 2023, dated 2026)

Columns and labels:
[1] = system: firefly luciferase protein expression; experiment: Intramuscular expression profile of formulated firefly luciferase mRNA in mice (IVIS); format: in vivo, BALB/c mice; details: intramuscular firefly luciferase mRNA-LNP
Experimental: All procedures used in animal studies conducted at the University of Toronto were approved by Institutional Animal Care and Use committee (IACUC) under protocol number 20012621 and comply with all applicable local, provincial, and federal regulations. Female BALB/c mice (7-8 weeks old) were purchased from Charles River Laboratories and acclimated for 1 to 2 weeks before initiation of the study.
Mice (n=4) were injected in both quadriceps with 0.5 μg of formulated firefly luciferase mRNA in 50 μL. At various timepoints (6 hours, 24 hours, 48 hours, and 96 hours post-dose), mice were injected intraperitoneally with 3 mg D-Luciferin (Thermo Scientific 88291) in 200 μL 1×PBS. 5 minutes later, mice were anesthetized and imaged on an in vivo imaging system (PerkinElmer, IVIS Spectrum) to measure total bioluminescent flux (photons/second) in each hindlimb (FIG. 2). The area under curve (AUC) for individual hindlimbs was determined with GraphPad Prism 9.

[2] = system: THP-1 monocytes; format: cell-based, human; details: THP-1, 500 ng/well mRNA, 24 hours post-transfection
Experimental: THP-1 monocytes are human cells isolated from the peripheral blood of a patient with acute monocytic leukemia. […] Cells were plated at a density of 100,000 cells per well in a 96-well plate and transfected in quadruplicates with 500 ng/well of firefly luciferase mRNA formulated in lipid nanoparticles. Cell viability and firefly luciferase expression were determined after 24 hours with a plate reader assay, following the manufacturer's protocol (Promega E7110).

## CCCCCCCCCCN(CCCCCCCCCC)CCOC(=O)CCCN(CCO)CCCC(=O)OCCN(CCCCCCCCCC)CCCCCCCCCC [Compound I-3]
[1]
  intramuscular expression (in words): higher intramuscular expression than DLin-MC3-DMA
[2]
  cell viability / toxicity: significant cell death
